Experimental data published in ChEMBL document CHEMBL1130534, “Potent antiinflammatory 3-thiazole-4(5)-acetic acids of 1,2-benzisothiazole” (1997).
Where “and” joins values, the source holds several entries; their conditions need not be identical. Equal entries are not always repeated.

Key:
Assay type in all cases: functional
Rattus norvegicus [1] = assay: Compound (50 mg/kg) administered orally was tested for antiinflammatory activity in carrageenan-induced rat paw edema assay after 2 hours
Rattus norvegicus [2] = assay: Compound (50 mg/kg) administered intraperitoneally was tested for antiinflammatory activity in carrageenan induced rat paw edema assay after 2 hours
Rattus norvegicus [3] = assay: Compound (50 mg/kg) administered intraperitoneally was tested for antiinflammatory activity in carrageenan induced rat paw edema assay after 3.5 hours
Rattus norvegicus [4] = assay: Compound administered orally was tested for antiinflammatory activity in carrageenan-induced rat paw edema assay after 3.5 hours; set-up: concentration or dose not given beside the values
Rattus norvegicus [5] = assay: Compound administered intraperitoneally was tested for antiinflammatory activity in carrageenan-induced rat paw edema assay after 2 hours; set-up: concentration or dose not given beside the values
Rattus norvegicus [6] = assay: Compound administered intraperitoneally was tested for antiinflammatory activity in carrageenan-induced rat paw edema assay after 3.5 hours; set-up: concentration or dose not given beside the values
Rattus norvegicus [7] = assay: Compound administered orally was tested for antiinflammatory activity in carrageenan-induced rat paw edema assay after 2 hours; set-up: concentration or dose not given beside the values

| SMILES | Inhibition (Rattus norvegicus [1]) [%] | Inhibition (Rattus norvegicus [2]) [%] | Inhibition (Rattus norvegicus [3]) [%] | Inhibition (Rattus norvegicus [4]) | Inhibition (Rattus norvegicus [5]) [%] | Inhibition (Rattus norvegicus [6]) [%] | Inhibition (Rattus norvegicus [7]) [%] |
| --- | --- | --- | --- | --- | --- | --- | --- |
| O=C(O)Cc1sc(-c2nsc3ccccc23)nc1-c1ccc(Cl)cc1 | 69 | 76 | 64 | 62% and 61% | 78 | 67 | 75 |
| CCOC(=O)Cc1sc(-c2nsc3ccccc23)nc1-c1ccc(OC)cc1 |  |  |  | 29% | 34 | 30 | 20 |
| O=C(O)Cc1csc(-c2nsc3ccccc23)n1 |  |  |  | 46% | 55 | 64 | 64 |
| O=C(O)Cc1sc(-c2nsc3ccccc23)nc1-c1ccccc1 |  |  |  | 19% | 45 | 7 | 15 |
| CCOC(=O)Cc1sc(-c2nsc3ccccc23)nc1-c1ccccc1 |  |  |  | 11% | <10 | <10 | <10 |
| CCOC(=O)Cc1sc(-c2nsc3ccccc23)nc1-c1ccc(Cl)cc1 |  |  |  | 22% | 24 | 13 | 34 |
| CCOC(=O)Cc1csc(-c2nsc3ccccc23)n1 |  |  |  | 11% |  |  | 18 |
| COc1ccc(-c2nc(-c3nsc4ccccc34)sc2CC(=O)O)cc1 |  |  |  | 33% | 40 | 24 | 36 |
| CC(C)Cc1ccc(C(C)C(=O)O)cc1 (configuration not stated) [IBUPROFEN] |  |  |  | 65% | 70 | 74 | 62 |
